Measurements published in ChEMBL document CHEMBL2429839, “Synthesis and characterization of 2-(4-((1-alkyl or aryl-1H-1,2,3-triazol-4-yl)methoxy)phenyl)naphtho[1,2-d]oxazoles for protein tyrosine phosphatase 1B inhibitory activity” (Med Chem Res, 2013).

What was measured:
[1] = test system: Rattus norvegicus; assay: Antidiabetic activity in Sprague-Dawley albino rat assessed as inhibition of blood glucose level at 300 mg/kg, ip administered 10 mins prior to oral glucose challenge measured after 10 mins by glucometer relative to control; type: functional
[2] = test system: Rattus norvegicus; assay: Antidiabetic activity in Sprague-Dawley albino rat assessed as inhibition of blood glucose level at 50 mg/kg, ip administered 10 mins prior to oral glucose challenge measured after 10 mins by glucometer relative to control; type: functional
[3] = target: T1, Tyrosine-protein phosphatase non-receptor type 1 (Rattus norvegicus, UniProt P20417); assay: (§1) Inhibition of PTP1B in rat liver homogenates using p-nitro phenyl phosphate as substrate preincubated for 30 mins followed by substrate addition measured after 10 mins; type: tissue-based
T1 sequence (P20417 whole entry): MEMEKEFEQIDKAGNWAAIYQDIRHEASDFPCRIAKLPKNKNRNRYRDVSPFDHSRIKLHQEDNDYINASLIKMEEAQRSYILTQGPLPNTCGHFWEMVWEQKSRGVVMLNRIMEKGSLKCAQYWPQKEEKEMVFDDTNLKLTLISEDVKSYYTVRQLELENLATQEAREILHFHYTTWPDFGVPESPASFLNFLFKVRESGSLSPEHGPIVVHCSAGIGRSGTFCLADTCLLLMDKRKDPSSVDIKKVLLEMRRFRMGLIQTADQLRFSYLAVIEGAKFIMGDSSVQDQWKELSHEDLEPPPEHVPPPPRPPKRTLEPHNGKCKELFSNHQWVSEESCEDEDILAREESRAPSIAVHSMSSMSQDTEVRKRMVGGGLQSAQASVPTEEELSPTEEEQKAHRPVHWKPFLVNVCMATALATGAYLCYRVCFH

[4] = target: T2, Tyrosine-protein phosphatase non-receptor type 1 (Rattus norvegicus) (UniProt P20417); assay: as §1; type: tissue-based
T2 sequence (whole entry): T1 sequence (P20417 whole entry)

[5] = target: T2, Tyrosine-protein phosphatase non-receptor type 1 (Rattus norvegicus); assay: (§2) Inhibition of PTP1B in rat liver homogenates using p-nitro phenyl phosphate as substrate at 10 uM preincubated for 30 mins followed by substrate addition measured after 10 mins relative to control; type: tissue-based
[6] = test system: A549; assay: Cytotoxicity against human A549 cells after 24 hrs by MTT assay; type: cell-based; conditions: A549, 24 h
[7] = test system: HEK293; assay: Cytotoxicity against HEK293 cells after 24 hrs by MTT assay; type: cell-based; conditions: Homo sapiens, HEK293, 24 h
[8] = target: Tyrosine-protein phosphatase non-receptor type 1 (Rattus norvegicus) (UniProt P20417); assay: as §2; type: tissue-based; remark: listed apart in the source

CN(C)C(=N)NC(=N)N [METFORMIN]
inhibition in vivo at 300 mg/kg [1]: 57.1%

FC(F)(F)c1ccc(-n2cc(COc3ccc(-c4nc5c(ccc6ccccc65)o4)cc3)nn2)cc1
inhibition in vivo at 50 mg/kg [2]: 78.6% | IC50 [3]: 8.61 µM | inhibition [4]: Dose-dependent effect | inhibition [5]: 68.3% | IC50 [6]: > 1000 µM | IC50 [7]: > 1000 µM

Cc1ccc(-n2cc(COc3ccc(-c4nc5c(ccc6ccccc65)o4)cc3)nn2)cc1
inhibition in vivo at 50 mg/kg [2]: 62.6% | IC50 [3]: 20.4 µM | inhibition [4]: Dose-dependent effect | inhibition [5]: 41.6% | IC50 [6]: > 1000 µM | IC50 [7]: > 1000 µM

SODIUM ORTHOVANAD
inhibition [8]: 60.7%

COc1cccc2c1C(=O)c1c(O)c3c(c(O)c1C2=O)C[C@@](O)(C(=O)CO)C[C@@H]3O[C@H]1C[C@H](N)[C@H](O)[C@H](C)O1 [DOXORUBICIN]
IC50 [6]: 3.98 µM | IC50 [7]: 1.01 µM
